Columns and labels:
Estrogen receptor beta = Estrogen receptor beta (Homo sapiens, UniProt Q92731); settings: sf9; also: in other assays of this panel Not Active means under 50% inhibition at 10 µM
[1] = DRUGMATRIX: Serotonin (5-Hydroxytryptamine) 5-HT3 radioligand binding (ligand: [3H] GR-65630); type: cell membranes, Membrane; settings: hek293; Not Active = under 50% inhibition at 10 µM
[2] = biological target: T1, Muscarinic acetylcholine receptor M4 (Homo sapiens, UniProt P08173); type: cell membranes, CHO-K1, Membrane; also: in other assays of this panel Not Active means under 50% inhibition at 10 µM
T1 sequence (P08173 whole entry): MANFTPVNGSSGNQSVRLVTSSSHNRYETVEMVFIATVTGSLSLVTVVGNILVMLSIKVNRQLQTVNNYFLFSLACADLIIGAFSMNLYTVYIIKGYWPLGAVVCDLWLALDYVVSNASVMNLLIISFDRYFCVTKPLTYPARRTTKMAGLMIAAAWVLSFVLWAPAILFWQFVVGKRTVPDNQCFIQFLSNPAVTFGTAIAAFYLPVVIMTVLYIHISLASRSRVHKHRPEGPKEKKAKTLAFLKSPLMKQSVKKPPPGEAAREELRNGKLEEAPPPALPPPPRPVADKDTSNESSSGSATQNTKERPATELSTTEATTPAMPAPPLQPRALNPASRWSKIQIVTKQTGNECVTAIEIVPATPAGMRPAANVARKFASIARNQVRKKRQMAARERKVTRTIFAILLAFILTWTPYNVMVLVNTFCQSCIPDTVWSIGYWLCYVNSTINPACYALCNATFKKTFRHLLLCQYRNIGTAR

Carbonic anhydrase 2 = Carbonic anhydrase 2 (Homo sapiens, UniProt P00918); experiment: DRUGMATRIX: Carbonic Anhydrase II enzyme inhibition (substrate: 4-Nitrophenyl acetate (4-NPA)); type: tissue-based, Erythrocyte; settings: Not Active = under 50% inhibition at 10 µM
Cytochrome P450 2A6 = biological target: T2, Cytochrome P450 2A6 (Homo sapiens, UniProt P11509); settings: bti-tn-5b1-4; also: in other assays of this panel Not Active means under 50% inhibition at 10 µM
T2 sequence (P11509 whole entry): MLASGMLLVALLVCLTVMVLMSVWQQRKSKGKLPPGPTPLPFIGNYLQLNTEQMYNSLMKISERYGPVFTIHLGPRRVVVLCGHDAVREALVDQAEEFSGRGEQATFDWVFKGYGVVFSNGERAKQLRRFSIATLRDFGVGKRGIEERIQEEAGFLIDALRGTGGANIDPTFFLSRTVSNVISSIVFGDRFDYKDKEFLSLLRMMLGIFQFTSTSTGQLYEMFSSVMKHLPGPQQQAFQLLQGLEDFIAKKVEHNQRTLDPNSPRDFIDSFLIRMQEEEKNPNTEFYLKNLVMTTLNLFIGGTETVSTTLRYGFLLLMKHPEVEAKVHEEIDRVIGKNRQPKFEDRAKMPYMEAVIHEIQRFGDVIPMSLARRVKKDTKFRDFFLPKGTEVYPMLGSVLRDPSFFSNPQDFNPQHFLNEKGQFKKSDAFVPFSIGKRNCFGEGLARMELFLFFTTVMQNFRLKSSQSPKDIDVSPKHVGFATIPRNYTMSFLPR

[3] = biological target: Beta-3 adrenergic receptor (Homo sapiens, UniProt P13945); experiment: DRUGMATRIX: Adrenergic beta3 radioligand binding (ligand: [125I] Cyanopindolol); type: cell membranes, Membrane; settings: hek293; Not Active = under 50% inhibition at 10 µM
Beta-3 adrenergic receptor, sequence (P13945 whole entry): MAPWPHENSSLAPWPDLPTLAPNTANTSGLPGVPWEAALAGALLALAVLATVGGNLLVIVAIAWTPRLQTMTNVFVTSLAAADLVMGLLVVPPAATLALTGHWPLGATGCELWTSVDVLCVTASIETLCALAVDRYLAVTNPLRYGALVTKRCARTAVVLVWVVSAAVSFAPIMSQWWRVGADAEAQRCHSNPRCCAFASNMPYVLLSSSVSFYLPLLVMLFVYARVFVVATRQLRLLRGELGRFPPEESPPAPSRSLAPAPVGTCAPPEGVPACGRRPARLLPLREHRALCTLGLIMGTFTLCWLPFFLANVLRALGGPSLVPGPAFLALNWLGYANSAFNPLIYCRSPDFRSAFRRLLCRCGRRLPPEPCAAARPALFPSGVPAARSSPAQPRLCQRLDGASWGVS

[4] = biological target: Delta-type opioid receptor (Homo sapiens, UniProt P41143); type: cell membranes, HEK293, Membrane; settings: hek293; also: in other assays of this panel Not Active means under 50% inhibition at 10 µM
Delta-type opioid receptor, sequence (P41143 whole entry): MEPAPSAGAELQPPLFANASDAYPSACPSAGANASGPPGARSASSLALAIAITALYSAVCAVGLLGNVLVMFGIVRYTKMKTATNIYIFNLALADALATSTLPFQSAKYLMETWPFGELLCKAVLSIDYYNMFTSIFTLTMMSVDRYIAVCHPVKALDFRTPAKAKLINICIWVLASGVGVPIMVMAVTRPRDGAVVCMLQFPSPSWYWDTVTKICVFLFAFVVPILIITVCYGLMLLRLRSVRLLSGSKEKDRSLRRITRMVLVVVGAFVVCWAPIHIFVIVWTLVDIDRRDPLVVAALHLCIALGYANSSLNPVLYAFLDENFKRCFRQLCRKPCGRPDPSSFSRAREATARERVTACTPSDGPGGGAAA

D(4) dopamine receptor = biological target: T3, D(4) dopamine receptor (Homo sapiens, UniProt P21917); experiment: DRUGMATRIX: Dopamine D4.2 radioligand binding (ligand: [3H] Spiperone); type: cell membranes, Membrane; settings: cho-k1; Not Active = under 50% inhibition at 10 µM
T3 sequence (P21917 whole entry): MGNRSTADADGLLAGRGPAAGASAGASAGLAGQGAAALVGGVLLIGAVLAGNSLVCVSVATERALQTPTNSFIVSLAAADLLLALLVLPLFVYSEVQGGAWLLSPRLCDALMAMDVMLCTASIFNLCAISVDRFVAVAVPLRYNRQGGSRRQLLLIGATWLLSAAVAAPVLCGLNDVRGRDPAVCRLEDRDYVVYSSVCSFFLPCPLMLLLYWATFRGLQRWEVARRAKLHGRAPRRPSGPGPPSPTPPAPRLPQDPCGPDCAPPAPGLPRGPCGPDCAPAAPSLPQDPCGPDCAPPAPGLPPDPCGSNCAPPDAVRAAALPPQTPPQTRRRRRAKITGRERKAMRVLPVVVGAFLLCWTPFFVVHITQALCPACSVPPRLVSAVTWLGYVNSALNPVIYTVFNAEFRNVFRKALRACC

Endothelin-1 receptor = biological target: T4, Endothelin-1 receptor (Homo sapiens, UniProt P25101); type: cell membranes, Membrane; settings: cho-k1; also: in other assays of this panel Not Active means under 50% inhibition at 10 µM
T4 sequence (P25101 whole entry): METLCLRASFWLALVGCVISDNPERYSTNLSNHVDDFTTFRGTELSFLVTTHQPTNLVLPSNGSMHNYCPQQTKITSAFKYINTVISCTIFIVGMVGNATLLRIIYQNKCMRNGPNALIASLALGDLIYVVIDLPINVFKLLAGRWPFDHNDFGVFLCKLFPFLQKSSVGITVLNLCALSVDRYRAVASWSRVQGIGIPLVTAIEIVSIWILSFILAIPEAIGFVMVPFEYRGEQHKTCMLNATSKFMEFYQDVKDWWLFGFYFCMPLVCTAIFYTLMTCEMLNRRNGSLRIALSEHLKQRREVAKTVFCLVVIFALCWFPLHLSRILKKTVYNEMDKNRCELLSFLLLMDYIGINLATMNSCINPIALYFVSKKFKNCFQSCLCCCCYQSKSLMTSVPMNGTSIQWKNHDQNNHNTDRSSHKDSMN

[5] = biological target: Platelet-activating factor receptor (Homo sapiens, UniProt P25105); type: tissue-based; also: in other assays of this panel Not Active means under 50% inhibition at 10 µM
Platelet-activating factor receptor, sequence (P25105 whole entry): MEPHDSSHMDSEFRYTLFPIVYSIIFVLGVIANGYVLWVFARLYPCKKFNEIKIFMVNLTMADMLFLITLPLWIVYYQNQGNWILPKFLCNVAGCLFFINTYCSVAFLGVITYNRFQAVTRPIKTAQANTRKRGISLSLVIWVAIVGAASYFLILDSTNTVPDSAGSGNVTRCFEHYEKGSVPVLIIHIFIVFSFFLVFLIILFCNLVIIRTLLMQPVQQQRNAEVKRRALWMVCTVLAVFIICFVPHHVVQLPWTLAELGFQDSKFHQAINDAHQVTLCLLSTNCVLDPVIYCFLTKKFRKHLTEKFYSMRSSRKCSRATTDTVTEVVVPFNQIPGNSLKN

[6] = DRUGMATRIX: ATPase, Na+/K+ enzyme inhibition (substrate: ATP); type: tissue-based, Sus scrofa, Heart; settings: Not Active = under 50% inhibition at 10 µM

Estrogen receptor beta, sequence (Q92731 whole entry): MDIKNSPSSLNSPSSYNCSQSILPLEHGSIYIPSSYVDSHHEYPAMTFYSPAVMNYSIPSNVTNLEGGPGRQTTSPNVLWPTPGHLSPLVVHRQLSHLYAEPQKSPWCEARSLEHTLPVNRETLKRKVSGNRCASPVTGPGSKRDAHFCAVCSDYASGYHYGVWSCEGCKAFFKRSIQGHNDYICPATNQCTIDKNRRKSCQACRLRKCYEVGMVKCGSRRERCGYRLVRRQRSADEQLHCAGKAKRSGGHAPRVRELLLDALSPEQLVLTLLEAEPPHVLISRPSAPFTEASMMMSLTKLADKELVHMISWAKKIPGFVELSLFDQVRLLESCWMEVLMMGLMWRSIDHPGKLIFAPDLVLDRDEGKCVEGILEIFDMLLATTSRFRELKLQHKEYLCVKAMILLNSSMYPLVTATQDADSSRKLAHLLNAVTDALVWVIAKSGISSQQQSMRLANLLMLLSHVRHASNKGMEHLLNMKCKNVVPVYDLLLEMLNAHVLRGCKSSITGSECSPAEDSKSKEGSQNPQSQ

Row | SMILES | IC50 (Estrogen receptor beta) | IC50 [1] | Ki [1] | IC50 ([2]; cho-k1) | IC50 (Carbonic anhydrase 2; erythrocyte) | IC50 (Cytochrome P450 2A6) | Ki (Cytochrome P450 2A6) | IC50 [3] | IC50 [4] | IC50 (D(4) dopamine receptor) | IC50 (Endothelin-1 receptor) | IC50 [5] | IC50 [6] | Ki [6] | IC50 ([2]; read-out: IC50) [nM] | Ki ([2]; read-out: Ki) [nM] | Ki (Endothelin-1 receptor) | IC50 (Carbonic anhydrase 2; read-out: IC50) [nM]
1 | CC1=C(CC(=O)O)c2cc(F)ccc2/C1=C\c1ccc([S+](C)[O-])cc1 (centres undefined) | Not Active | Not Active | Not Active | Not Active | Not Active | Not Active | Not Active | Not Active | Not Active | Not Active | Not Active | Not Active | Not Active | Not Active |  |  |  | 
2 | N[C@H](CSC(=S)NCc1ccccc1)C(=O)O | Not Active | Not Active | Not Active | Not Active | Not Active | Not Active | Not Active | Not Active | Not Active | Not Active | Not Active | Not Active | Not Active | Not Active |  |  |  | 
3 | Clc1ccc2c(c1)C(N1CCNCC1)=Nc1ccccc1O2 [AMOXAPINE] | Not Active |  |  |  | Not Active | Not Active | Not Active | Not Active | Not Active | Not Active | Not Active | Not Active |  |  |  |  |  | 
4 | COc1cc2c(c(OC)c1OC)-c1ccc(OC)c(=O)cc1[C@@H](NC(C)=O)CC2 [COLCHICINE] | Not Active |  |  | Not Active | Not Active | Not Active | Not Active | Not Active | Not Active | Not Active | Not Active | Not Active |  |  |  |  |  | 
5 | CN1CCC(=C2c3ccccc3C=Cc3ccccc32)CC1 [CYPROHEPTADINE] | Not Active |  |  |  | Not Active | Not Active | Not Active | Not Active | Not Active | Not Active | Not Active | Not Active |  |  | 16 | 2.19 |  | 
6 | CC/C(=C(/CC)c1ccc(O)cc1)c1ccc(O)cc1 [DIETHYLSTILBESTROL] | Not Active |  |  | Not Active | Not Active | Not Active | Not Active | Not Active |  | Not Active | Not Active | Not Active |  |  |  |  |  | 
7 | C=CCN1CC[C@]23c4c5ccc(O)c4O[C@H]2C(=O)CC[C@@]3(O)[C@H]1C5 [NALOXONE] | Not Active |  |  | Not Active | Not Active |  |  | Not Active |  | Not Active | Not Active | Not Active |  |  |  |  |  | 
8 | COCCOC(=O)C1=C(C)NC(C)=C(C(=O)OC(C)C)C1c1cccc([N+](=O)[O-])c1 (centres undefined) [NIMODIPINE] |  | Not Active | Not Active | Not Active | Not Active |  |  | Not Active | Not Active | Not Active | Not Active | Not Active | Not Active | Not Active |  |  |  | 
9 | CC(C)NCC(O)COc1cccc2ccccc12 (centres undefined) [PROPRANOLOL] | Not Active |  |  | Not Active | Not Active | Not Active | Not Active |  | Not Active | Not Active | Not Active | Not Active |  |  |  |  |  | 
10 | O=C(c1ccc(OCCN2CCCCC2)cc1)c1c(-c2ccc(O)cc2)sc2cc(O)ccc12 [RALOXIFENE] | Not Active | Not Active | Not Active | Not Active | Not Active | Not Active | Not Active | Not Active |  | Not Active | Not Active | Not Active | Not Active | Not Active |  |  |  | 
11 | CC(C)c1nc(CN(C)C(=O)N[C@H](C(=O)N[C@@H](Cc2ccccc2)C[C@H](O)[C@H](Cc2ccccc2)NC(=O)OCc2cncs2)C(C)C)cs1 [RITONAVIR] | Not Active | Not Active | Not Active | Not Active | Not Active |  |  | Not Active | Not Active | Not Active | Not Active | Not Active | Not Active | Not Active |  |  |  | 
12 | Cc1cc(C)nc(NS(=O)(=O)c2ccc(N)cc2)n1 [SULFAMETHAZINE] |  | Not Active | Not Active | Not Active | Not Active | Not Active | Not Active | Not Active | Not Active | Not Active | Not Active | Not Active | Not Active | Not Active |  |  |  | 
13 | C[C@]1(Cn2ccnn2)[C@H](C(=O)O)N2C(=O)C[C@H]2S1(=O)=O [TAZOBACTAM] |  | Not Active | Not Active | Not Active | Not Active | Not Active | Not Active | Not Active | Not Active | Not Active | Not Active | Not Active | Not Active | Not Active |  |  |  | 
14 | Cc1onc(-c2ccccc2)c1-c1ccc(S(N)(=O)=O)cc1 [VALDECOXIB] | Not Active | Not Active | Not Active | Not Active |  | Not Active | Not Active | Not Active | Not Active | Not Active |  | Not Active | Not Active | Not Active |  |  | Not Active | 
15 | CC(=O)CC(c1ccccc1)c1c(O)c2ccccc2oc1=O (centres undefined) [WARFARIN] |  | Not Active | Not Active | Not Active | Not Active | Not Active | Not Active | Not Active | Not Active | Not Active | Not Active | Not Active | Not Active | Not Active |  |  |  | 
16 | [Cl-].[Cl-].[Zn+2] [ZINC CHLORIDE] |  | Not Active | Not Active | Not Active |  | Not Active | Not Active | Not Active | Not Active | Not Active | Not Active | Not Active | Not Active | Not Active |  |  |  | 1160
